Measurements published in ChEMBL document CHEMBL4219206, “Novel thioureido-benzenesulfonamide derivatives with enaminone linker as potent anticancer, radiosensitizers and VEGFR2 inhibitors” (Bioorg Med Chem Lett, 2018).

System: HepG2
Assay: cells
Settings: Homo sapiens, HepG2, 24 h
Description: Antiproliferative activity against human HepG2 cells after 24 hrs by MTT assay

Question: `CCOC(=O)c1ccc(N/C=C/C(=O)c2cccc(NC(=S)Nc3ccc(S(=O)(=O)Nc4ccccn4)cc3)c2)cc1` was tested. Which IC50 did it give?
Answer: The IC50 was 1500 nM.

Question: With `O=C(/C=C/NCc1ccccc1)c1cccc(NC(=S)Nc2ccc(S(=O)(=O)Nc3ccccn3)cc2)c1` as the compound, how does the IC50 read?
Answer: The IC50 was 2500 nM.

Question: `CN(C)/C=C/C(=O)c1ccc(NC(=S)Nc2ccc(S(=O)(=O)Nc3ccccn3)cc2)cc1` was tested. Which IC50 did it give?
Answer: Its IC50 is 3500 nM.

Question: `O=C(/C=C/Nc1ccccc1)c1cccc(NC(=S)Nc2ccc(S(=O)(=O)Nc3ccccn3)cc2)c1` was tested. Which IC50 did it give?
Answer: Its IC50 is 4700 nM.

Question: For `Cc1c(N/C=C/C(=O)c2ccc(NC(=S)Nc3ccc(S(=O)(=O)Nc4ccccn4)cc3)cc2)c(=O)n(-c2ccccc2)n1C`, which IC50 is on record?
Answer: Its IC50 is 8000 nM.

Question: Which IC50 does the source give for `O=C(/C=C/Nc1ccc(F)cc1)c1cccc(NC(=S)Nc2ccc(S(=O)(=O)Nc3ccccn3)cc2)c1` here?
Answer: The IC50 was 1200 nM.

Question: With `CCOC(=O)N/C=C/C(=O)c1cccc(NC(=S)Nc2ccc(S(=O)(=O)Nc3ccccn3)cc2)c1` as the compound, how does the IC50 read?
Answer: Its IC50 is 1900 nM.

Question: For `CC(=O)c1ccc(NC(=S)Nc2ccc(S(=O)(=O)Nc3ccccn3)cc2)cc1`, which IC50 is on record?
Answer: Its IC50 is 6900 nM.

Question: `CCOC(=O)N/C=C/C(=O)c1ccc(NC(=S)Nc2ccc(S(=O)(=O)Nc3ccccn3)cc2)cc1` was tested. Which IC50 did it give?
Answer: Its IC50 is 120 nM.

Question: How did the IC50 turn out when `O=C(/C=C/Nc1ccccc1)c1ccc(NC(=S)Nc2ccc(S(=O)(=O)Nc3ccccn3)cc2)cc1` was run?
Answer: The IC50 was 3900 nM.

Question: For `O=C(/C=C/Nc1ccccn1)c1ccc(NC(=S)Nc2ccc(S(=O)(=O)Nc3ccccn3)cc2)cc1`, which IC50 is on record?
Answer: The IC50 was 3100 nM.

Question: With `COC(=O)/C=C(/C)N/C=C/C(=O)c1ccc(NC(=S)Nc2ccc(S(=O)(=O)Nc3ccccn3)cc2)cc1` as the compound, how does the IC50 read?
Answer: Its IC50 is 290 nM.

Question: How did the IC50 turn out when `O=C(/C=C/Nc1ccccc1O)c1cccc(NC(=S)Nc2ccc(S(=O)(=O)Nc3ccccn3)cc2)c1` was run?
Answer: Its IC50 is 2900 nM.

Question: `CNC(=O)c1cc(Oc2ccc(NC(=O)Nc3ccc(Cl)c(C(F)(F)F)c3)cc2)ccn1` [SORAFENIB] was tested. Which IC50 did it give?
Answer: Its IC50 is 1060 nM.

Question: How did the IC50 turn out when `O=C(/C=C/NCc1ccccc1)c1ccc(NC(=S)Nc2ccc(S(=O)(=O)Nc3ccccn3)cc2)cc1` was run?
Answer: Its IC50 is 2300 nM.

Question: With `Cc1ccc(N/C=C/C(=O)c2cccc(NC(=S)Nc3ccc(S(=O)(=O)Nc4ccccn4)cc3)c2)c(C(=O)O)c1` as the compound, how does the IC50 read?
Answer: The IC50 was 1600 nM.

Question: For `COC(=O)c1c(N/C=C/C(=O)c2cccc(NC(=S)Nc3ccc(S(=O)(=O)Nc4ccccn4)cc3)c2)sc(C)c1C`, which IC50 is on record?
Answer: The IC50 was 10800 nM.

Question: With `CN(C)/C=C/C(=O)c1cccc(NC(=S)Nc2ccc(S(=O)(=O)Nc3ccccn3)cc2)c1` as the compound, how does the IC50 read?
Answer: The IC50 was 5500 nM.

Question: Which IC50 does the source give for `O=C(/C=C/Nc1ccccn1)c1cccc(NC(=S)Nc2ccc(S(=O)(=O)Nc3ccccn3)cc2)c1` here?
Answer: Its IC50 is 4700 nM.

Question: Which IC50 does the source give for `O=C(/C=C/Nc1ccccc1O)c1ccc(NC(=S)Nc2ccc(S(=O)(=O)Nc3ccccn3)cc2)cc1` here?
Answer: The IC50 was 1400 nM.

Question: How did the IC50 turn out when `Cc1ccc(C(=O)O)c(N/C=C/C(=O)c2ccc(NC(=S)Nc3ccc(S(=O)(=O)Nc4ccccn4)cc3)cc2)c1` was run?
Answer: Its IC50 is 580 nM.

Question: With `O=C(/C=C/Nc1ccccc1Cl)c1cccc(NC(=S)Nc2ccc(S(=O)(=O)Nc3ccccn3)cc2)c1` as the compound, how does the IC50 read?
Answer: Its IC50 is 500 nM.

Question: Which IC50 does the source give for `COC(=O)/C=C(/C)N/C=C/C(=O)c1cccc(NC(=S)Nc2ccc(S(=O)(=O)Nc3ccccn3)cc2)c1` here?
Answer: Its IC50 is 1500 nM.

Question: How did the IC50 turn out when `O=S(=O)(Nc1ccccn1)c1ccc(N=C=S)cc1` was run?
Answer: Its IC50 is 5500 nM.

Question: Which IC50 does the source give for `O=C(/C=C/Nc1ccccc1Cl)c1ccc(NC(=S)Nc2ccc(S(=O)(=O)Nc3ccccn3)cc2)cc1` here?
Answer: Its IC50 is 440 nM.

Question: For `Cc1c(N/C=C/C(=O)c2cccc(NC(=S)Nc3ccc(S(=O)(=O)Nc4ccccn4)cc3)c2)c(=O)n(-c2ccccc2)n1C`, which IC50 is on record?
Answer: Its IC50 is 11400 nM.

Question: Which IC50 does the source give for `CCOC(=O)c1ccc(N/C=C/C(=O)c2ccc(NC(=S)Nc3ccc(S(=O)(=O)Nc4ccccn4)cc3)cc2)cc1` here?
Answer: Its IC50 is 660 nM.

Question: With `O=C(/C=C/Nc1ccc(F)cc1)c1ccc(NC(=S)Nc2ccc(S(=O)(=O)Nc3ccccn3)cc2)cc1` as the compound, how does the IC50 read?
Answer: The IC50 was 420 nM.

Question: How did the IC50 turn out when `CC(=O)c1cccc(NC(=S)Nc2ccc(S(=O)(=O)Nc3ccccn3)cc2)c1` was run?
Answer: Its IC50 is 5000 nM.

Question: For `COC(=O)c1c(N/C=C/C(=O)c2ccc(NC(=S)Nc3ccc(S(=O)(=O)Nc4ccccn4)cc3)cc2)sc(C)c1C`, which IC50 is on record?
Answer: Its IC50 is 6200 nM.

System: HepG2
Assay: cells
Settings: Homo sapiens, HepG2, light or radiation study
Description: Phototoxicity against human HepG2 cells assessed as reduction in cell viability pretreated for 2 hrs followed by 8 Gy gamma irradiation for 17.73 mins measured after 48 hrs by MTT assay

Question: `CCOC(=O)N/C=C/C(=O)c1ccc(NC(=S)Nc2ccc(S(=O)(=O)Nc3ccccn3)cc2)cc1` was tested. Which IC50 did it give?
Answer: The IC50 was 70 nM.

Question: How did the IC50 turn out when `COC(=O)/C=C(/C)N/C=C/C(=O)c1ccc(NC(=S)Nc2ccc(S(=O)(=O)Nc3ccccn3)cc2)cc1` was run?
Answer: Its IC50 is 160 nM.

Question: Which IC50 does the source give for `Cc1ccc(C(=O)O)c(N/C=C/C(=O)c2ccc(NC(=S)Nc3ccc(S(=O)(=O)Nc4ccccn4)cc3)cc2)c1` here?
Answer: Its IC50 is 300 nM.

Question: With `O=C(/C=C/Nc1ccccc1Cl)c1ccc(NC(=S)Nc2ccc(S(=O)(=O)Nc3ccccn3)cc2)cc1` as the compound, how does the IC50 read?
Answer: The IC50 was 250 nM.

Question: With `CCOC(=O)c1ccc(N/C=C/C(=O)c2ccc(NC(=S)Nc3ccc(S(=O)(=O)Nc4ccccn4)cc3)cc2)cc1` as the compound, how does the IC50 read?
Answer: The IC50 was 390 nM.

Question: With `O=C(/C=C/Nc1ccc(F)cc1)c1ccc(NC(=S)Nc2ccc(S(=O)(=O)Nc3ccccn3)cc2)cc1` as the compound, how does the IC50 read?
Answer: The IC50 was 230 nM.
